{
  "source": "patent US20110136728A1",
  "about": "“METHODS OF INCREASING BONE FORMATION USING LEPTIN-RELATED PEPTIDES” (priority 2009, published 2011)",
  "set-up": "species or system male Swiss Webster mice",
  "conditions": "mouse, in vivo",
  "experimental": "Six week-old male Swiss Webster mice weighing approximately 30 g were obtained from Taconic Farms (Germantown, N.Y., USA). The animals were housed three per cage in polycarbonate cages fitted with stainless steel wire lids and air filters, and supported on ventilated racks (Thoren Caging Systems, Hazelton, Pa., USA) in the Albany Medical College Animal Resources Facility. The mice were maintained at a constant temperature (24° C.) with lights on from 07:00 to 19:00 h, and allowed food and water ad libitum until used for uptake studies. Mouse [[…]]OB3 was prepared commercially as a C-terminal amide by Bachem (Torrance, Calif., USA). For oral delivery, mouse [[…]]-OB3 was dissolved in either phosphate buffered saline (PBS, pH 7.2) or 0.3% […] Therapeutics, San Diego, Calif. USA) reconstituted in water, at a concentration of 1 mg/200 ul and administered by gavage. Is has been previously shown that this concentration to be optimum for regulating energy expenditure, glycemic control, and insulin sensitivity in two genetically obese mouse models. (See Grasso P. et al., Regulatory Pept. 101:123-9 (2001); Grasso P. et al., Regulatory Pept. 85:93-100 (1999); Grasso P. et al., Endocrinology 138:1413-8 (1997); Grasso P. et al., Diabetes 48:2204-9 (1999); and Rozhayskaya-Arena M. et al., Endocrinology 141:2501-7 (2000)). At time zero (0), 200 μl mouse [[…]]-OB3 in PBS or 0.3% […]® was delivered by gavage to each mouse. Following peptide administration, the mice were transferred to separate cages for the designated time period. Five, 10, 20, 40, 60, or 120 min after peptide delivery, the mice (six per time point) were anesthetized with isoflurane (5%) and exsanguinated by cardiac puncture. Euthanasia was confirmed by cervical dislocation. The blood was collected in sterile nonheparinized plastic centrifuge tubes and allowed to stand at room temperature for 1 h. The clotted blood was rimmed from the walls of the tubes with sterile wooden applicator sticks. Individual serum samples were prepared by centrifugation for 30 min at 2600×g in an Eppendorf […], A-4-38 rotor (Eppendorf North America, Westbury, N.Y., USA), The serum samples in each experimental group (n=6) were pooled and stored frozen until assayed for mouse [[…]]-OB3 content by competitive ELISA. Mouse [[…]]-OB3 content of the pooled serum samples was measured by a competitive ELISA developed and validated in our laboratory as previously described. (See Novakovic Z. et al., Regulatory Pept. 154:107-11 (2009)). Serum concentrations of mouse [[…]]OB3 vs. time following oral delivery were plotted using the graphics program SigmaPlot 8.0 (SPSS Science, Chicago, Ill., USA). The area under the curve (AUC) was calculated with a function of this program. The lowest AUC value obtained was arbitrarily set at 1.0. Relative bioavailabilty was determined by comparing all other AUC values to 1.0. The period of time required for the serum concentration of mouse [[…]]-OB3 to be reduced to exactly one-half of the maximum concentration achieved following oral administration of mouse [[…]]-OB3 in the absence or presence of […]® was calculated using the following equation: […] Clearance of mouse [[…]]-OB3 from the plasma following oral delivery was calculated from the AUC using the following equation: CL=Dose/AUC Since the half-life of a drug is inversely related to its clearance from the plasma and directly proportional to its volume of distribution, the apparent volume of distribution of mouse [[…]]-OB3 following oral delivery was calculated from its half-life and clearance using the following equation: […] The relative oral bioavailability of mouse [[…]]-OB3 delivered in […]® was compared to the relative bioavailabilities of intranasal and three commonly used injection methods of delivery recently reported. (See Oliveira Jr. V X. et al., J. Pept. Sci. 14:617-25 (2008)). […]",
  "note": "Non-standard residues stand in square brackets, D forms with d. Residues, ends and D or L forms follow the SMILES beside them.",
  "data": [
    {"smiles": "CC(C)C[C@@H](NC(=O)[C@H](CO)NC(=O)[C@H](CS)NC(=O)[C@@H](N)CO)C(=O)N1CCC[C@H]1C(=O)N[C@@H](CCC(N)=O)C(=O)N[C@H](C(N)=O)[C@@H](C)O", "note": "[mouse [D-Leu-4]-OB3] (H-SCS[dL]PQT-NH2; N-terminus assumed)", "values": [
      {"measurement": "Relative oral bioavailability", "value": 52.2, "unit": "%"},
      {"measurement": "bioavailability", "setting": "Relative oral bioavailability", "value": 47.3, "unit": "%"},
      {"measurement": "Maximum uptake (Cmax) in Intravail relative to PBS", "setting": "po, 1 mg", "value": 3.6, "unit": "fold"},
      {"measurement": "Plasma CL in PBS compared with Intravail", "setting": "po, 1 mg", "value": "four times faster"},
      {"measurement": "Tmax", "setting": "po, 1 mg", "value": 50, "unit": "min"},
      {"measurement": "t1/2 (serum half-life)", "setting": "po, 1 mg", "value": 20.15, "unit": "min"},
      {"measurement": "tmax", "setting": "po, 1 mg", "value": 50, "unit": "min"}
    ]}
  ]
}
